The NIST ThermoML archive (doi:10.1021/acs.jced.8b00036)
Several values for one entry are separate records, joined by “and”; a condition that tells them apart may be missing. Equal entries are not always repeated. ± gives the expanded uncertainty stated by the source.

Conditions: Capillary tube (Ostwald / Ubbelohde) method

FC(F)(F)/C=C\C(F)(F)F [(Z)-1,1,1,4,4,4-hexafluorobut-2-ene]
Conditions	viscosity
313.83 K, 513 kPa, Liquid	0.3037 ± 0.018 mPa·s
313.84 K, 513 kPa, Liquid	0.3034 ± 0.018 mPa·s
313.84 K, 514 kPa, Liquid	0.3036 ± 0.018 mPa·s
313.92 K, 2053 kPa, Liquid	0.3115 ± 0.019 mPa·s
313.94 K, 2037 kPa, Liquid	0.3097 ± 0.019 mPa·s
313.94 K, 2996 kPa, Liquid	0.3143 ± 0.019 mPa·s
313.94 K, 3001 kPa, Liquid	0.3146 ± 0.019 mPa·s
313.94 K, 4041 kPa, Liquid	0.3198 ± 0.019 mPa·s
313.95 K, 2025 kPa, Liquid	0.3098 ± 0.019 mPa·s
313.95 K, 3000 kPa, Liquid	0.3143 ± 0.019 mPa·s
313.95 K, 4049 kPa, Liquid	0.3197 ± 0.019 mPa·s
313.96 K, 4002 kPa, Liquid	0.3194 ± 0.019 mPa·s
314.26 K, 1040 kPa, Liquid	0.3074 ± 0.019 mPa·s
314.27 K, 1041 kPa, Liquid	0.3068 ± 0.019 mPa·s
314.31 K, 1050 kPa, Liquid	0.3081 ± 0.019 mPa·s
331.5 K, 503 kPa, Liquid	0.2577 ± 0.016 mPa·s
331.5 K, 505 kPa, Liquid	0.2579 ± 0.016 mPa·s
331.51 K, 506 kPa, Liquid	0.2578 ± 0.016 mPa·s
331.57 K, 2020 kPa, Liquid	0.2593 ± 0.016 mPa·s and 0.2599 ± 0.016 mPa·s
331.57 K, 2033 kPa, Liquid	0.26 ± 0.016 mPa·s
331.81 K, 1002 kPa, Liquid	0.2579 ± 0.016 mPa·s
331.82 K, 1017 kPa, Liquid	0.259 ± 0.016 mPa·s
331.83 K, 1015 kPa, Liquid	0.2588 ± 0.016 mPa·s
331.84 K, 4062 kPa, Liquid	0.2658 ± 0.016 mPa·s
331.85 K, 4047 kPa, Liquid	0.2652 ± 0.016 mPa·s
331.87 K, 4059 kPa, Liquid	0.2651 ± 0.016 mPa·s
331.94 K, 3026 kPa, Liquid	0.2608 ± 0.016 mPa·s
331.94 K, 3039 kPa, Liquid	0.2617 ± 0.016 mPa·s
331.94 K, 3040 kPa, Liquid	0.2617 ± 0.016 mPa·s
353.79 K, 4019 kPa, Liquid	0.2122 ± 0.013 mPa·s
353.8 K, 4020 kPa, Liquid	0.212 ± 0.013 mPa·s and 0.2117 ± 0.013 mPa·s
353.99 K, 2066 kPa, Liquid	0.2011 ± 0.012 mPa·s
353.99 K, 2067 kPa, Liquid	0.2011 ± 0.012 mPa·s
354 K, 2064 kPa, Liquid	0.201 ± 0.012 mPa·s
354.08 K, 3022 kPa, Liquid	0.2047 ± 0.012 mPa·s
354.1 K, 3021 kPa, Liquid	0.2032 ± 0.012 mPa·s
354.23 K, 1032 kPa, Liquid	0.1944 ± 0.012 mPa·s
354.23 K, 1033 kPa, Liquid	0.1942 ± 0.012 mPa·s
354.24 K, 1031 kPa, Liquid	0.193 ± 0.012 mPa·s
374.43 K, 4050 kPa, Liquid	0.1702 ± 0.01 mPa·s
374.43 K, 4056 kPa, Liquid	0.1702 ± 0.01 mPa·s
374.44 K, 2025 kPa, Liquid	0.1613 ± 0.0098 mPa·s
374.44 K, 4050 kPa, Liquid	0.1705 ± 0.01 mPa·s
374.45 K, 2025 kPa, Liquid	0.1618 ± 0.0098 mPa·s
374.46 K, 2025 kPa, Liquid	0.1611 ± 0.0098 mPa·s
374.74 K, 3026 kPa, Liquid	0.1632 ± 0.0099 mPa·s and 0.1645 ± 0.01 mPa·s
374.75 K, 3026 kPa, Liquid	0.1635 ± 0.0099 mPa·s
374.87 K, 492 kPa, Gas	0.013 ± 0.00082 mPa·s
374.88 K, 492 kPa, Gas	0.01305 ± 0.00082 mPa·s
393.63 K, 3044 kPa, Liquid	0.1336 ± 0.0081 mPa·s
393.64 K, 3044 kPa, Liquid	0.1339 ± 0.0081 mPa·s
393.65 K, 3044 kPa, Liquid	0.1332 ± 0.0081 mPa·s
393.65 K, 4017 kPa, Liquid	0.1377 ± 0.0084 mPa·s and 0.138 ± 0.0084 mPa·s and 0.1378 ± 0.0084 mPa·s
394 K, 2016 kPa, Liquid	0.1278 ± 0.0078 mPa·s
394.01 K, 2016 kPa, Liquid	0.128 ± 0.0078 mPa·s
394.03 K, 2016 kPa, Liquid	0.1282 ± 0.0078 mPa·s
394.16 K, 499 kPa, Gas	0.01348 ± 0.00085 mPa·s
394.19 K, 499 kPa, Gas	0.01343 ± 0.00085 mPa·s
413.55 K, 4046 kPa, Liquid	0.1104 ± 0.0067 mPa·s
413.56 K, 4047 kPa, Liquid	0.11 ± 0.0067 mPa·s
413.63 K, 3011 kPa, Liquid	0.103 ± 0.0063 mPa·s
413.63 K, 3015 kPa, Liquid	0.103 ± 0.0063 mPa·s
413.75 K, 3010 kPa, Liquid	0.1029 ± 0.0063 mPa·s
413.99 K, 503 kPa, Gas	0.01378 ± 0.00087 mPa·s
414.21 K, 503 kPa, Gas	0.01361 ± 0.00086 mPa·s
414.24 K, 1014 kPa, Gas	0.01449 ± 0.00092 mPa·s
414.29 K, 1033 kPa, Gas	0.01434 ± 0.00091 mPa·s and 0.01444 ± 0.00091 mPa·s
434.12 K, 3016 kPa, Liquid	0.07044 ± 0.0044 mPa·s and 0.07094 ± 0.0044 mPa·s
434.13 K, 3016 kPa, Liquid	0.07045 ± 0.0044 mPa·s
434.23 K, 502 kPa, Gas	0.01388 ± 0.00088 mPa·s
434.23 K, 503 kPa, Gas	0.01384 ± 0.00087 mPa·s
434.28 K, 1011 kPa, Gas	0.01451 ± 0.00092 mPa·s
434.28 K, 1012 kPa, Gas	0.01443 ± 0.00091 mPa·s
434.37 K, 4014 kPa, Liquid	0.08047 ± 0.005 mPa·s and 0.08072 ± 0.005 mPa·s and 0.08096 ± 0.005 mPa·s
454.24 K, 506 kPa, Gas	0.01429 ± 0.0009 mPa·s
454.27 K, 506 kPa, Gas	0.0143 ± 0.0009 mPa·s
454.34 K, 1003 kPa, Gas	0.01547 ± 0.00097 mPa·s and 0.01568 ± 0.00099 mPa·s
454.57 K, 2031 kPa, Gas	0.01628 ± 0.001 mPa·s
454.58 K, 2030 kPa, Gas	0.01633 ± 0.001 mPa·s
473.27 K, 509 kPa, Gas	0.02101 ± 0.0013 mPa·s
474.67 K, 500 kPa, Gas	0.0152 ± 0.00098 mPa·s
474.69 K, 500 kPa, Gas	0.01519 ± 0.00098 mPa·s
474.82 K, 999 kPa, Gas	0.01587 ± 0.001 mPa·s
474.83 K, 2004 kPa, Gas	0.0169 ± 0.0011 mPa·s
474.84 K, 2004 kPa, Gas	0.01661 ± 0.001 mPa·s
474.85 K, 1000 kPa, Gas	0.01579 ± 0.00099 mPa·s

FCC(F)(F)F [1,1,1,2-tetrafluoroethane]
Liquid
Conditions	viscosity [mPa·s]
312.75 K, 4064 kPa	0.1723 ± 0.01
312.76 K, 4069 kPa	0.1731 ± 0.011
312.77 K, 3061 kPa	0.1681 ± 0.01
312.78 K, 3042 kPa	0.1684 ± 0.01
312.78 K, 3061 kPa	0.1682 ± 0.01
312.82 K, 4048 kPa	0.173 ± 0.011
312.83 K, 1706 kPa	0.1656 ± 0.01
312.96 K, 1701 kPa	0.165 ± 0.01
313.01 K, 1763 kPa	0.1654 ± 0.01
313.5 K, 1796 kPa	0.1656 ± 0.01
332.79 K, 3072 kPa	0.1279 ± 0.0078
332.79 K, 3083 kPa	0.1284 ± 0.0078
332.8 K, 3079 kPa	0.1282 ± 0.0078
332.8 K, 4005 kPa	0.1325 ± 0.0081
332.81 K, 4008 kPa	0.1324 ± 0.0081
332.81 K, 4011 kPa	0.1325 ± 0.0081
354.96 K, 4007 kPa	0.09565 ± 0.0059
355.51 K, 4078 kPa	0.09407 ± 0.0058
355.94 K, 4155 kPa	0.09335 ± 0.0057
